Assay results taken from patent US10787454B2, “Imidazo[1,5-a]pyrimidinyl carboxamide compounds and their use in the treatment of medical disorders” (BIAL-BioTech Investments, Inc., priority 2016, dated 2020).
Converted amounts (≈) assume the structure as drawn.

Legend:
[1] = target: T1, glucocerebrosidase (Gcase) (Homo sapiens, UniProt P04062); assay: Glucocerebrosidase (Gcase) activation assay, 4-methylumbelliferyl-beta-D-glucopyranoside substrate, with saposin C; type: biochemical; details: for Percent Gcase Activation, 1 μM Test Compound / activation at 1 µM: test compound at 1.0 μM; for activation at 0.1 µM: read-out: Percent Gcase Activation, 0.1 μM Test Compound; for activation at 1 µM: read-out: Percent Gcase Activation, 1 μM Test Compound
T1 sequence (P04062 40-536): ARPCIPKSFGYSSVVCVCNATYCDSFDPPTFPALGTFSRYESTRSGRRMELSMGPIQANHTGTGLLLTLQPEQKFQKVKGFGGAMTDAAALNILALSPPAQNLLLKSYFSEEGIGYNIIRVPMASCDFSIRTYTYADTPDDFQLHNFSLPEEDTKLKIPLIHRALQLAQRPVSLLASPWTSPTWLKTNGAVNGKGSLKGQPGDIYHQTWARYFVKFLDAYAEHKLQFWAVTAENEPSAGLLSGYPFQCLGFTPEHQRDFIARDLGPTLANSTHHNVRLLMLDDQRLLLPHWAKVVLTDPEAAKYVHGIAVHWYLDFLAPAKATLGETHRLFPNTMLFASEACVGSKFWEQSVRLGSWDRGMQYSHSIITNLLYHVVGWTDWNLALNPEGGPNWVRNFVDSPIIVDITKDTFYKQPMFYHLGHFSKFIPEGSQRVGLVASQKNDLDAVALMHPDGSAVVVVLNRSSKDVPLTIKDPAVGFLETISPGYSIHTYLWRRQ
Experimental: The ability of exemplary compounds to activate glucocerebrosidase (Gcase) was measured.
A 484 μL aliquot of a 1.0 mg/mL solution of phosphatidylserine (PS) (Sigma P7769) in chloroform was evaporated under a stream of nitrogen for 1 hour. The lipid film was dissolved over 4 minutes of vigorous vortexing in 40 mL of 176 mM K2HPO4/50 mM citric acid (pH 4.7) containing 7.5 μL of triton X-100, resulting in a mixed micellar preparation with a composition of 0.32 mM triton and 0.37 mol % PS. 4-Methylumbelliferyl-beta-D-glucopyranoside (ACROS-337025000) was dissolved in the micellar solution to a final concentration of 2 mM for use as the reaction substrate.
Test compounds were diluted to the desired concentrations with dimethylsulfoxide (DMSO) from 10 mM stocks, and 0.41 μL of the DMSO compound mixture was added to 100 μL of micellar solution containing 10 nM GCase and 100 nM saposin C (Enzo ALX-201-262-C050). Pre-incubation was allowed to occur for 30 minutes at room temperature, after which the reaction was initiated by combining 25 μL of substrate solution with 25 μL of compound/GCase/saposin mixture. The reaction proceeded for 15 minutes at room temperature and was stopped by adding 150 μL of 1M glycine, pH 12.5. The endpoint of the reaction was monitored by measuring fluorescence intensity (excitation: 365 nm; emission: 440 nm) on a SpectraMax i3 instrument (Molecular Devices). Test compounds were screened at 1.0 and 0.1 μM final concentration, and subsequent 8-point dose response curves were obtained using 3-fold dilutions from a maximum final concentration of 5 μM.

[2] = Compound solubility in water; type: physicochemical

Row | Percent Gcase Activation, 1 μM Test Compound [1] | Compound Solubility in Water [2] [µg/mL] | solubility [2] [µg/mL] | activation at 0.1 µM ([1]; test compound at 0.1 μM) [%] | activation at 1 µM [1] [%] | SMILES | Percent Gcase Activation, 0.1 μM Test Compound ([1]; test compound at 0.1 μM)
1 | +++ (Gcase activation greater than 60%) | – | – | – | – | Cc1cc(C)n2cnc(C(=O)NC(C)C3CCCCC3)c2n1 (stereo not shown) [III-9] | –
2 | +++ (Gcase activation greater than 60%) | 23.0 | – | – | – | Cc1cc(C)n2cnc(C(=O)NC(C)C3CCCCC3)c2n1 (stereo not shown) [III-10] | ** (Gcase activation in the range of 10% up to 20%)
3 | – | – | 0.9 (≈ 2.45 µM) | > 20 | > 60 | Cc1cc(N)nc2c(C(=O)NC(c3ccc(F)cc3)C(F)(F)F)ncn12 (stereo not shown) [III-17] | –
4 | – | – | 10.6 (≈ 29.9 µM) | < 10 | 30 to 60 | Cc1cc(Oc2ccc(F)cc2)nc2c(C(=O)N[C@@H](C)C3CC3)ncn12 [III-77] | –
